Data on six molecules can be found in ChEMBL document CHEMBL6134918, “Novel Indole and Pyrrolopyridine Derivatives as GPR17 Modulators for Treating Multiple Sclerosis” (ACS Med Chem Lett, 2025).

The assay deals with Uracil nucleotide/cysteinyl leukotriene receptor (Homo sapiens, UniProt Q13304). Briefly: Inhibition of full length GPR17 (unknown origin) stably expressed in human 1321N1 cells incubated for 15 mins by cAMP based HTRF assay. In kind it is functional, cell-based. On the technique in general: TR-FRET usually uses a lanthanide donor and a delayed reading to cut background.
Sequence of Uracil nucleotide/cysteinyl leukotriene receptor (Q13304 whole entry): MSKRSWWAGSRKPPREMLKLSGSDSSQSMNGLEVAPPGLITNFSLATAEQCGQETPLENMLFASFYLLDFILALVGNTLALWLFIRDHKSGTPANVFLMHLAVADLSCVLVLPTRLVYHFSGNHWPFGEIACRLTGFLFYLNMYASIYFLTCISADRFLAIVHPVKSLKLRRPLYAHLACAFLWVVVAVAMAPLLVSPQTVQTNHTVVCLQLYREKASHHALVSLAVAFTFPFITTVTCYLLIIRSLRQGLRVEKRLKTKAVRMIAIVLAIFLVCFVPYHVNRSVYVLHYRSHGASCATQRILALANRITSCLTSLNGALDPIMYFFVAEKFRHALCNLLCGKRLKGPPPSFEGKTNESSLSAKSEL

As to `N#Cc1c(NS(=O)(=O)c2c[nH]c3cc(Cl)ccc23)cnn1CCC(F)(F)F`, the IC50 – broadly, the midpoint of a concentration-inhibition curve – was less than 100 nM.
Molecule `Cc1snc(NS(=O)(=O)c2c[nH]c3cc(Cl)ccc23)c1Cl` had an IC50 of less than 100 nM.
Under `CCCn1ncc(NS(=O)(=O)c2c[nH]c3cc(Cl)ccc23)c1C#N` stands less than 100 nM; under `O=S(=O)(Nc1ncc(C(F)(F)F)s1)c1c[nH]c2cc(Cl)ccc12`, less than 100 nM.
Take `N#Cc1c(NS(=O)(=O)c2c[nH]c3cc(Cl)ccc23)cnn1CCCl`: the IC50 was less than 100 nM.
For the molecule `Cc1onc(NS(=O)(=O)c2c[nH]c3cc(Cl)c(Cl)cc23)c1Cl`, the half-inhibitory concentration (IC50) is less than 100 nM.
